Holding throughout (type): cell-based, human
Experiment [1] deals with OVCAR-8 NCI/ADR-RES cells. In words: Nuclear count assay in multidrug resistant cells, with or without P-gp inhibitor. The settings on record: OVCAR-8 NCI-ADR RES subline, Count POC (FIG. 3E). How it is done: Compound was added to the cells with a final volume of 200 μL in complete media containing 0.5% DMSO.
The plates were sealed and incubated for 1 hour at room temperature in the dark. Cells were stored at 4° C. in the dark until data acquisition. […] The Total Valid Object Count was represented as a Count POC (Percentage of DMSO Control) using the following formula:
Briefly, OVCAR-8 cells were seeded in duplicate in a Corning 96-well Flat Clear Bottom Black Polystyrene plates (Corning, N.Y.) in 100 μL of appropriate complete media at the appropriate density and grown for 24 hours. […] After 4 days (96 hours) of treatment, the cells were fixed by removing 100 μL of complete media from each well and replacing it with 100 μL of 2×formaldehyde (final 4%) and incubating the plates for 15 minutes at room temperature. […] The plates were sealed and incubated for 1 hour at room temperature in the dark. Cells were stored at 4° C. in the dark until data acquisition. […] The Total Valid Object Count was represented as a Count POC (Percentage of DMSO Control) using the following formula:
Count POC=(Total Valid Object Count in treated well)[…](Total Valid Object Count in DMSO treated wells)×100
Compound concentration and Count POC values were plotted using GraphPad Prism software (V7.0.4) and curve-fitting was performed with 4-parameter equation (variable slope). The concentration-response curves and standard deviation represent two independent experiments run in duplicate.

A further experiment concerns CAL-51 TNBC cells. In words: Centrosome immunofluorescence imaging and cl-PARP Western blotting (Example 6). The settings on record: 0.5 μM; 24 h imaging, 48 h Western; TP53 wild-type. How it is done:
(§1) To analyze the effects of a KIF18A inhibitor on mitotic centrosome/chromosome features and apoptosis of cancer cells, centrosome features in CAL-51 and MDA-MB-157 TNBC cells were analyzed by an immunofluorescence imaging analysis. Cells were seeded into Cell Carrier Ultra 96-well Polystyrene plate (PerkinElmer) in 200 μL of complete media and grown. […] Cells were washed twice with 200 μL Wash Buffer (1×PBS/0.5% BSA, Rockland Immunochemicals). Cells are stained with 100 μL anti-CETN3 mouse antibody (1:2000, H00001070-M01, Abnova) and anti-pericentrin rabbit antibody (1:2000, ab4448-100, Abcam) in 200 μL of Wash Buffer and incubated overnight at 4° C. Cells were washed twice with 200 μL Wash Buffer. Cells were stained with 100 μL secondary antibodies [goat anti-mouse IgG-alexa-488 (1:1000, A1 1029, Invitrogen) and goat anti-rabbit IgG-alexa-647 (1:1000, A21244, Invitrogen) in Wash Buffer for 2 hours at room temperature protected for light. Cells were washed twice followed by addition of 100 μL Wash Buffer containing Hoechst 33342 DNA dye (2 μg/mL). Cells were imaged on a PerkinElmer Ultraview Vox dual spinning disc confocal microscope using a 60× oil immersion objective with laser excitation wavelengths of 405 nm (Hoechst), 488 nm (alexa-488), and 647 nm (alexa-647). Representative maximal projection images were collected for mitotic objects from each treatment well. […]

For another experiment, the system named is MDA-MB-157 TNBC cells. The experiment is described as above. The conditions noted are these: 0.5 μM; 24 h imaging, 48 h Western; TP53 mutant, CCNE1 amplified. How it is done:
as §1

For the next experiment, the system named is OVCAR-3 HGSOC cells. In words: Time course Western blot of cell cycle and apoptosis proteins. The conditions noted are these: 0.5 μM; release from double thymidine block, 4-24 hours. How it is done: OVCAR-3 HGSOC cells were seeded at a density of 1.4 million cells into 100 mm tissue culture plates in 10 mL of complete growth media. The next day, complete growth media containing 2 mM thymidine was added to the cells and incubated for 16 hours. Cells were washed thrice in 1×PBS before adding complete growth media for 8 hours, followed by and second 2 mM thymidine block for 16 hours. The double thymidine block arrested cells in G1/S phase of the cell cycle. Cells were release from G1/S block by first washing thrice in 1×PBS before adding complete growth media with DMSO or KIF18A inhibitor (Compound C11 at 0.5 μM). Cell lysates were prepared at multiple time points (4, 8, 10, 12, 14, and 24 hours). As controls, asynchronous growing OVCAR-3 cells were treated DMSO or KIF18A inhibitor (Compound C11 at 0.5 μM) and lysates were prepared at 24 hours. Primary antibodies included mouse anti-cleaved-PARP (cl-PARP) (51-900017, BD Pharmingen, 1:500), mouse anti-cyclin B1 (554179, BD Pharmingen, 1:500), rabbit anti-Mcl-1 (5453, Cell Signaling, 1:500), mouse anti-Cyclin E1 (MS-870-P, HE12, NeoMarkers, 1:2000), mouse anti-BubR1 (612503, BD Pharmingen, 1:5000), and rabbit anti-KIF18A (HPA039484, Simga, 1:2000), and mouse anti-β-actin (A5441, Simga, 1:5000).
In general terms: A western blot detects proteins with antibodies after separation by electrophoresis.

From patent US20230151432A1, “KIF18A INHIBITORS FOR TREATMENT OF NEOPLASTIC DISEASES” (AMGEN INC., priority 2020, published 2023) come the findings set out here.

For the compound `Cc1cc(NC(=O)c2ccc(NS(=O)(=O)CCO)cc2N2CCC3(CC2)CC3)nc(N2CCC(F)(F)CC2)n1` [Compound C14, N-(2-(4,4-Difluoropiperidin-1-yl)-6-methylpyrimidin-4-yl)-4-((2-hydroxyethyl)sulfonamido)-2-(6-azaspiro[2.5]octan-6-yl)benzamide], the “sensitivity of the cell line compared with PARP inhibitor, paclitaxel, doxorubicin, carboplatin” value in experiment [1] is “greatest sensitivity”.

With `CC(C)(CO)Nc1ccc(C(=O)Nc2cccc(S(=O)(=O)C3CCCC3)c2)c(N2CCC3(CC2)CC3)n1` [Compound C11, N-(3-(cyclopentylsulfonyl)phenyl)-6-((1-hydroxy-2-methylpropan-2-yl)amino)-2-(6-azaspiro[2.5]octan-6-yl)nicotinamide], the “mitotic cell centrosome features and apoptosis” value in the experiment with CAL-51 TNBC cells is “no changes in centrosome features or apoptosis”; in the experiment on MDA-MB-157 TNBC cells, “selectively induced alterations in mitotic cell centrosome features”. For the same compound, the “KIF18A and BubR1 protein levels” value with OVCAR-3 HGSOC cells is “increase in KIF18A and BubR1 protein levels”. Also, in the experiment on OVCAR-3 HGSOC cells, the “cyclin B1, cl-PARP, Mcl-1 and cyclin E1 protein levels” value was “increase in cyclin B1 and cl-PARP protein levels and a decrease in Mcl-1 and cyclin E1 levels”.
